Results taken from patent publication US20100298141A1, “SUBSTITUTED PYRIDINE N-OXIDE HERBICIDES” (E. I. DU PONT DE NEMOURS AND COMPANY, priority 2007, published 2010).

What was measured:
[1] = system: annual bluegrass; assay: Test F preemergence test; assay type: in vivo, Poa annua; conditions: scale 0 to 100
Procedure, shortened: (§1)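 Greenhouse screen: test chemical in surfactant-containing non-phytotoxic solvent applied preemergence to sown seeds or postemergence to sugarcane plants; after 14 to 21 days each species scored visually versus controls.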

[2] = system: mustard; assay: Test F preemergence test; assay type: in vivo, Brassica nigra; conditions: scale 0 to 100
Procedure, shortened: as §1

[3] = system: common groundsel; assay: Test F preemergence test; assay type: in vivo, Senecio vulgaris; conditions: scale 0 to 100
Procedure, shortened: as §1

[4] = system: dallisgrass; assay: Test F preemergence test; assay type: in vivo, Paspalum dilatatum; conditions: scale 0 to 100
Procedure, shortened: as §1

[5] = system: umbrella sedge; assay: Test C flooded paddy test; assay type: in vivo, Cyperus difformis; conditions: Flood
Procedure, shortened: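 Compound was added to standing water 3 cm above soil, flood maintained, and plants held in a greenhouse before visual scoring against controls at 13 to 15 days.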

[6] = system: green foxtail; assay: Test F preemergence test; assay type: in vivo, Setaria viridis; conditions: scale 0 to 100
Procedure, shortened: as §1

[7] = system: Goosegrass; assay: Test C pre-/postemergence test; assay type: in vivo, Eleusin indica
Procedure, shortened: (§2)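 Test chemicals were formulated with surfactant in a non-phytotoxic solvent and sprayed both on freshly planted seeds (preemergence) and on 1- to 4-leaf plants of 2–18 cm (postemergence). Flooded-paddy pots received compound directly into 3 cm of standing water, maintained for the test.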

[8] = system: common mallow; assay: Test F preemergence test; assay type: in vivo, Malva sylvestris; conditions: scale 0 to 100
Procedure, shortened: as §1

[9] = system: quackgrass; assay: Test F preemergence test; assay type: in vivo, Elytrigia repens; conditions: scale 0 to 100
Procedure, shortened: as §1

[10] = system: crabgrass; assay: Test C pre-/postemergence test; assay type: in vivo, Digitaria sanguinalis
Procedure, shortened: as §2

[11] = system: kochia; assay: Test F preemergence test; assay type: in vivo, Kochia scoparia; conditions: scale 0 to 100
Procedure, shortened: as §1

[12] = system: wheat; assay: Test A pre-/postemergence greenhouse test; assay type: in vivo, Triticum aestivum; conditions: for Plant response rating, Wheat: 0 to 100 scale where 0 is no effect and 100 is complete control; for Wheat plant response rating: 0 to 100 scale
Procedure, shortened: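 Sowing in loam/sand; same-day pre (directed soil spray) and post (foliar, 1–2 leaf, 2–10 cm) treatment with surfactant-containing non-phytotoxic solvent formulation; ~10 days in greenhouse; eye-scored injury against untreated plants.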

[13] = 62 g ai/ha, scale 0 to 100 (0 no effect, 100 complete control)
[14] = 62 g ai/ha, Preemergence, scale 0 to 100
[15] = 125 g ai/ha, preemergence, scale 0 (no effect) to 100 (complete control)
[16] = Postemergence, 62 g ai/ha, scale 0 to 100, 0 no effect, 100 complete control
[17] = Postemergence, 125 g ai/ha, scale 0 to 100, 0 no effect, 100 complete control
[18] = Postemergence, 250 g ai/ha, scale 0 to 100, 0 no effect, 100 complete control
[19] = Preemergence, 31 g ai/ha, scale 0 to 100 (0 no effect, 100 complete control)
[20] = preemergence, 250 g ai/ha, scale 0 (no effect) to 100 (complete control)
[21] = Postemergence, 500 g ai/ha, 0 is no effect, 100 is complete control
[22] = Preemergence, 125 g ai/ha, 0 no effect, 100 complete control

CCn1nc(C(F)(F)F)c(CS(=O)(=O)c2cc(C)cc[n+]2[O-])c1OCC(F)(F)F [Compound 64]
Plant response rating, Bluegrass ([1]; 16 g ai/ha, preemergence): 0 | Bluegrass plant response rating ([1]; 62 g ai/ha, Preemergence): 90 | Bluegrass plant response rating ([1]; 125 g ai/ha, preemergence): 90 | Plant response rating, Bluegrass ([1]; Preemergence, 31 g ai/ha): 0 | Plant response rating, Black Mustard ([2]; 16 g ai/ha, preemergence): 0 | Black Mustard plant response rating ([2]; 62 g ai/ha, Preemergence): 80 | Black Mustard plant response rating ([2]; 125 g ai/ha, preemergence): 90 | Plant response rating, Black Mustard ([2]; Preemergence, 31 g ai/ha): 0 | Plant response rating, Groundsel ([3]; 16 g ai/ha, preemergence): 0 | Groundsel plant response rating ([3]; 62 g ai/ha, Preemergence): 15 | Groundsel plant response rating ([3]; 125 g ai/ha, preemergence): 80 | Plant response rating, Groundsel ([3]; Preemergence, 31 g ai/ha): 0 | Plant response rating, Dallisgrass ([4]; 16 g ai/ha, preemergence): 0 | Dallisgrass plant response rating ([4]; 62 g ai/ha, Preemergence): 70 | Dallisgrass plant response rating ([4]; 125 g ai/ha, preemergence): 90 | Plant response rating, Dallisgrass ([4]; Preemergence, 31 g ai/ha): 35 | Plant response rating, Sedge, Umbrella [5, 13]: 80 | Plant response rating, Sedge, Umbrella ([5]; 250 g ai/ha, scale 0 to 100, 0 no effect, 100 complete control, 13 to 15 days): 100 | Plant response rating, Foxtail, Green ([6]; 16 g ai/ha, preemergence): 15 | Foxtail, Green plant response rating ([6]; 62 g ai/ha, Preemergence): 95 | Foxtail, Green plant response rating ([6]; 125 g ai/ha, preemergence): 100 | Plant response rating, Foxtail, Green ([6]; Preemergence, 31 g ai/ha): 60 | Goosegrass plant response rating [7, 14]: 100 | Goosegrass plant response rating [7, 15]: 100 | Plant response rating (0 to 100), Goosegrass ([7]; Postemergence, 31 g ai/ha): 0 | Plant response rating, Goosegrass [7, 16]: 0 | Plant response rating, Goosegrass [7, 17]: 0 | Plant response rating, Goosegrass [7, 18]: 55 | Plant response rating, Goosegrass [7, 19]: 95 | Goosegrass plant response rating [7, 20]: 100 | Plant response rating, Mallow ([8]; 16 g ai/ha, preemergence): 0 | Mallow plant response rating ([8]; 62 g ai/ha, Preemergence): 75 | Mallow plant response rating ([8]; 125 g ai/ha, preemergence): 100 | Plant response rating, Mallow ([8]; Preemergence, 31 g ai/ha): 35 | Plant response rating, Quackgrass ([9]; 16 g ai/ha, preemergence): 40 | Quackgrass plant response rating ([9]; 62 g ai/ha, Preemergence): 95 | Quackgrass plant response rating ([9]; 125 g ai/ha, preemergence): 95 | Plant response rating, Quackgrass ([9]; Preemergence, 31 g ai/ha): 75 | Crabgrass, Large plant response rating [10, 14]: 100 | Crabgrass, Large plant response rating [10, 15]: 100 | Plant response rating (0 to 100), Crabgrass, Large ([10]; Postemergence, 31 g ai/ha): 0 | Plant response rating, Crabgrass, Large [10, 16]: 0 | Plant response rating, Crabgrass, Large [10, 17]: 0 | Plant response rating, Crabgrass, Large [10, 18]: 20 | Plant response rating, Crabgrass, Large [10, 19]: 98 | Crabgrass, Large plant response rating [10, 20]: 100 | Plant response rating, Kochia ([11]; 16 g ai/ha, preemergence): 0 | Kochia plant response rating ([11]; 125 g ai/ha, preemergence): 75 | Plant response rating, Wheat ([12]; Postemergence, 125 g ai/ha): 50 | Wheat plant response rating [12, 21]: 60 | Wheat plant response rating [12, 22]: 40 | Plant response rating, Wheat ([12]; Preemergence, 500 g ai/ha): 70

Cn1nc(C(F)(F)F)c(C[S+]([O-])c2ccc(F)c[n+]2[O-])c1OCC(F)(F)F (stereo not drawn) [Compound 67]
Plant response rating, Bluegrass ([1]; 16 g ai/ha, preemergence): 0 | Bluegrass plant response rating ([1]; 62 g ai/ha, Preemergence): 80 | Bluegrass plant response rating ([1]; 125 g ai/ha, preemergence): 100 | Plant response rating, Bluegrass ([1]; Preemergence, 31 g ai/ha): 0 | Plant response rating, Black Mustard ([2]; 16 g ai/ha, preemergence): 0 | Black Mustard plant response rating ([2]; 62 g ai/ha, Preemergence): 100 | Black Mustard plant response rating ([2]; 125 g ai/ha, preemergence): 100 | Plant response rating, Black Mustard ([2]; Preemergence, 31 g ai/ha): 75 | Plant response rating, Groundsel ([3]; 16 g ai/ha, preemergence): 0 | Groundsel plant response rating ([3]; 62 g ai/ha, Preemergence): 80 | Groundsel plant response rating ([3]; 125 g ai/ha, preemergence): 98 | Plant response rating, Groundsel ([3]; Preemergence, 31 g ai/ha): 25 | Plant response rating, Dallisgrass ([4]; 16 g ai/ha, preemergence): 0 | Dallisgrass plant response rating ([4]; 62 g ai/ha, Preemergence): 95 | Dallisgrass plant response rating ([4]; 125 g ai/ha, preemergence): 100 | Plant response rating, Dallisgrass ([4]; Preemergence, 31 g ai/ha): 40 | Plant response rating, Sedge, Umbrella [5, 13]: 100 | Plant response rating, Foxtail, Green ([6]; 16 g ai/ha, preemergence): 40 | Foxtail, Green plant response rating ([6]; 62 g ai/ha, Preemergence): 80 | Foxtail, Green plant response rating ([6]; 125 g ai/ha, preemergence): 100 | Plant response rating, Foxtail, Green ([6]; Preemergence, 31 g ai/ha): 60 | Goosegrass plant response rating [7, 14]: 100 | Goosegrass plant response rating [7, 15]: 100 | Plant response rating (0 to 100), Goosegrass ([7]; Postemergence, 31 g ai/ha): 0 | Plant response rating, Goosegrass [7, 16]: 0 | Plant response rating, Goosegrass [7, 17]: 50 | Plant response rating, Goosegrass [7, 18]: 90 | Plant response rating, Goosegrass [7, 19]: 100 | Goosegrass plant response rating [7, 20]: 100 | Plant response rating, Mallow ([8]; 16 g ai/ha, preemergence): 0 | Mallow plant response rating ([8]; 62 g ai/ha, Preemergence): 100 | Mallow plant response rating ([8]; 125 g ai/ha, preemergence): 100 | Plant response rating, Mallow ([8]; Preemergence, 31 g ai/ha): 15 | Plant response rating, Quackgrass ([9]; 16 g ai/ha, preemergence): 60 | Quackgrass plant response rating ([9]; 62 g ai/ha, Preemergence): 85 | Quackgrass plant response rating ([9]; 125 g ai/ha, preemergence): 98 | Plant response rating, Quackgrass ([9]; Preemergence, 31 g ai/ha): 75 | Crabgrass, Large plant response rating [10, 14]: 100 | Crabgrass, Large plant response rating [10, 15]: 100 | Plant response rating (0 to 100), Crabgrass, Large ([10]; Postemergence, 31 g ai/ha): 0 | Plant response rating, Crabgrass, Large [10, 16]: 0 | Plant response rating, Crabgrass, Large [10, 17]: 10 | Plant response rating, Crabgrass, Large [10, 18]: 60 | Plant response rating, Crabgrass, Large [10, 19]: 60 | Crabgrass, Large plant response rating [10, 20]: 100 | Plant response rating, Kochia ([11]; 16 g ai/ha, preemergence): 0 | Kochia plant response rating ([11]; 62 g ai/ha, Preemergence): 100 | Kochia plant response rating ([11]; 125 g ai/ha, preemergence): 100 | Plant response rating, Kochia ([11]; Preemergence, 31 g ai/ha): 60 | Plant response rating, Wheat ([12]; Postemergence, 125 g ai/ha): 60 | Wheat plant response rating [12, 21]: 70 | Wheat plant response rating [12, 22]: 60 | Plant response rating, Wheat ([12]; Preemergence, 500 g ai/ha): 100
